From PubChem BioAssay AID624322 (Sanford-Burnham Center for Chemical Genomics, 2012)
Active and inactive are the calls of the source. How the calls were made is not given here.

What follows are molecules tested against Sentrin-specific protease 8 (Homo sapiens) (UniProt Q96LD8) (assay: potency of human SENP8 inhibitors, dose response, biochemical, Nedd8 protein substrate (AID 624322)). Details: recombinant SENP8, Nedd8 substrate cleavage inhibition.
Sequence of Sentrin-specific protease 8 (Homo sapiens) (Q96LD8 whole entry, looked up): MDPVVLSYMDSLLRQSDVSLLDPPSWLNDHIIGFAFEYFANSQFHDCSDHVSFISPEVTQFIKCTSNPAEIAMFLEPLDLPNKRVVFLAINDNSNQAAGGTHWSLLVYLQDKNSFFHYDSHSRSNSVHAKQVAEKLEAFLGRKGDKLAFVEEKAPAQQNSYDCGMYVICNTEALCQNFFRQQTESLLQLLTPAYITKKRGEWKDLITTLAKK

| SMILES | IC50 |
| --- | --- |
| O=[N+]([O-])c1cc(F)c2cccnc2c1O | 11.8 µM |
| O=[N+]([O-])c1ccc(N2CCN(Cc3ccccc3)CC2)c2c1no[n+]2[O-] | 17.4 µM |
| Cn1c(Cc2ccccc2)nnc1SCC(=O)c1cccs1 | > 100 µM (inactive) |
| O=C(CCc1ccccc1)c1c(O)cc(O)cc1O | > 100 µM (inactive) |
| CC1=C(SCCC#N)S/C(=C2\SC(C)=C(SCCC#N)S2)S1 | 0.297 µM |
| O=C(NC1C(=O)NNC1c1ccccc1)c1ccccc1 (stereo unspecified) | > 100 µM (inactive) |
| NC(=O)c1ccc(N=Cc2ccc([N+](=O)[O-])s2)cc1 | 2.48 µM |
| COc1ccc(O)c(C(c2c(C)[nH][nH]c2=O)c2c(C)[nH][nH]c2=O)c1 | 7.17 µM |
| O=C(Nc1c(-c2ccccc2)[nH][nH]c1=O)c1cnccn1 | 42.6 µM |
| CCCn1nc([N+](=O)[O-])c(C(C#N)c2nc3ccccc3o2)c(Cl)c1=O (stereo unspecified) | > 100 µM (inactive) |
| O=c1[nH]c2ccccc2s1 | > 100 µM (inactive) |
| O=C(O)c1ccc(Cl)c(S(=O)(=O)NCc2ccco2)c1 | > 100 µM (inactive) |
| Cc1ccc(S(=O)(=O)N[C@H](C(=O)N2CCC(C(=O)N[C@H](C(=O)O)c3ccccc3)CC2)C(C)C)cc1 | > 100 µM (inactive) |
| O=C(O)CCCCCCCCCCCc1ccccc1 | > 100 µM (inactive) |
| O=C(N/N=C/c1ccc([N+](=O)[O-])o1)c1ccccc1-n1cccc1 | > 100 µM (inactive) |
| COc1ccc(-n2[nH]c(C)cc2=O)cc1 | > 100 µM (inactive) |
